Reference: PubChem BioAssay (NCI)
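GI50 is the concentration that inhibits growth by half. TGI: total growth inhibition.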

Legend:
Assay in all cases: NCI tumour cell line growth inhibition, 384-well format
786-0 renal = tested on: 786-0 renal
TK-10 renal = tested on: TK-10 renal
UACC-62 melanoma = tested on: UACC-62 melanoma
IGROV1 ovarian = tested on: IGROV1 ovarian
PC-3 prostate = tested on: PC-3 prostate
OVCAR-4 ovarian = tested on: OVCAR-4 ovarian
CAKI-1 renal = tested on: CAKI-1 renal
RXF 393 renal = tested on: RXF 393 renal
SF-539 CNS = tested on: SF-539 CNS
DU-145 prostate = tested on: DU-145 prostate
SK-MEL-5 melanoma = tested on: SK-MEL-5 melanoma
HT29 colon = tested on: HT29 colon
SW-620 colon = tested on: SW-620 colon
NCI-H460 NSCLC = tested on: NCI-H460 NSCLC
NCI-H522 lung = tested on: NCI-H522 lung
HOP-92 NSCLC = tested on: HOP-92 NSCLC
NCI-H226 lung = tested on: NCI-H226 lung
SNB-19 CNS = tested on: SNB-19 CNS
UACC-257 melanoma = tested on: UACC-257 melanoma
MCF7 breast = tested on: MCF7 breast
NCI-H23 lung = tested on: NCI-H23 lung
MALME-3M melanoma = tested on: MALME-3M melanoma
EKVX NSCLC = tested on: EKVX NSCLC
HCT-15 colon = tested on: HCT-15 colon
M14 melanoma = tested on: M14 melanoma
SNB-75 CNS = tested on: SNB-75 CNS
K-562 leukemia = tested on: K-562 leukemia
A498 renal = tested on: A498 renal

With `CC(C)NC(=O)OCc1c(COC(=O)NC(C)C)c(-c2ccc(Cl)c(Cl)c2)n2c1SCC2` the TGI (786-0 renal) was 15.8 µM, the GI50 (TK-10 renal) was 1.63 µM and the TGI (TK-10 renal) was 6.15 µM. It also gave a GI50 (UACC-62 melanoma) of 1.68 µM, a TGI (UACC-62 melanoma) of 4.98 µM and a GI50 (IGROV1 ovarian) of 1.25 µM. For the same molecule, the TGI (IGROV1 ovarian) was 4.55 µM, the GI50 (PC-3 prostate) was 10.8 µM and the TGI (PC-3 prostate) was 25.5 µM. It also gave a GI50 (OVCAR-4 ovarian) of 3.3 µM, a TGI (OVCAR-4 ovarian) of 17.5 µM and a GI50 (CAKI-1 renal) of 1.48 µM. For the same molecule, the TGI (CAKI-1 renal) was 3.44 µM, the GI50 (RXF 393 renal) was 2.64 µM and the TGI (RXF 393 renal) was 10.5 µM. The GI50 (SF-539 CNS) was 5.16 µM, the TGI (SF-539 CNS) was 18.7 µM and the GI50 (DU-145 prostate) was 5.54 µM. The TGI (DU-145 prostate) was 20.7 µM, the GI50 (SK-MEL-5 melanoma) was 4.33 µM and the TGI (SK-MEL-5 melanoma) was 17.8 µM. The GI50 (HT29 colon) was 10.4 µM, the TGI (HT29 colon) was 25 µM and the GI50 (SW-620 colon) was 5.81 µM. It also gave a TGI (SW-620 colon) of 19.6 µM, a GI50 (NCI-H460 NSCLC) of 2.56 µM and a TGI (NCI-H460 NSCLC) of 11.4 µM. It also gave a GI50 (NCI-H522 lung) of 2.09 µM, a TGI (NCI-H522 lung) of 13.8 µM and a GI50 (HOP-92 NSCLC) of 2.58 µM. The TGI (HOP-92 NSCLC) was 11.4 µM, the GI50 (NCI-H226 lung) was 0.85 µM and the TGI (NCI-H226 lung) was 2.35 µM. It also gave a GI50 (SNB-19 CNS) of 9.07 µM, a TGI (SNB-19 CNS) of 27.7 µM and a GI50 (UACC-257 melanoma) of 10.2 µM. The TGI (UACC-257 melanoma) was 22.4 µM, the GI50 (MCF7 breast) was 4.21 µM and the TGI (MCF7 breast) was 27 µM. It also gave a GI50 (NCI-H23 lung) of 1.83 µM, a TGI (NCI-H23 lung) of 4.26 µM and a GI50 (MALME-3M melanoma) of 5.06 µM. For the same molecule, the TGI (MALME-3M melanoma) was 17.8 µM, the GI50 (EKVX NSCLC) was 13.1 µM and the TGI (EKVX NSCLC) was 26.7 µM. It also gave a GI50 (HCT-15 colon) of 5.97 µM, a TGI (HCT-15 colon) of 19.8 µM and a GI50 (M14 melanoma) of 3.75 µM. The TGI (M14 melanoma) was 14.1 µM, the GI50 (SNB-75 CNS) was 2.27 µM and the TGI (SNB-75 CNS) was 12.7 µM. For the same molecule, the GI50 (K-562 leukemia) was 10.3 µM, the TGI (K-562 leukemia) was 22.6 µM and the GI50 (A498 renal) was 0.386 µM. It also gave a TGI (A498 renal) of 1.76 µM.
